Reference: article PMC7252619 (PLoS ONE, 2020)
Values joined by “and” are separate entries in the source; they are usually repeats but may differ in a detail not shown here. Equal values may be shown once. Read-outs that look alike come from different tables or passages of the source.

Tests used:
Test in all cases: Kinase activity test (ReactionBiology), % enzyme activity relative to DMSO;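 as to remaining activity: marketed FDA-approved drugs screened at 10 µM and 1 µM against a ten-kinase panel, remaining activity given as percent of DMSO controls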
Type in all cases: biochemical
MST-4 = molecular target: T1, MST-4 (Homo sapiens, UniProt Q9P289); details: for % Enzyme Activity (relative to DMSO controls), Average / % Enzyme Activity (relative to DMSO controls), Data 1 / % Enzyme Activity (relative to DMSO controls), Data 2: MST4; for % Enzyme Activity (relative to DMSO controls), Data 1: replicate Data 1; for % Enzyme Activity (relative to DMSO controls), Data 2: replicate Data 2;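 as to all read-outs here: marketed FDA-approved drugs screened at 10 µM and 1 µM against a ten-kinase panel, remaining activity given as percent of DMSO controls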
T1 construct: purchased ReactionBiology

DAPK1 = molecular target: T2, DAPK1 (Homo sapiens, UniProt P53355)
T2 construct: purchased ReactionBiology

VEGFR2 = VEGFR2 (Homo sapiens, UniProt P35968); parameters: purchased ReactionBiology; details: VEGFR2; for % Enzyme Activity (relative to DMSO controls), Data 1: replicate Data 1; for % Enzyme Activity (relative to DMSO controls), Data 2: replicate Data 2;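 as to all read-outs here: VEGFR2 was one member of a ten-kinase screening panel testing marketed FDA-approved drugs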
NEK2 = molecular target: T3, NEK2 (Homo sapiens, UniProt P51955); details: NEK2; for % Enzyme Activity (relative to DMSO controls), Data 1: replicate Data 1; for % Enzyme Activity (relative to DMSO controls), Data 2: replicate Data 2;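 as to all read-outs here: FDA-approved drugs chosen by structure-based repositioning, each screened at 10 or 1 µM for kinase activity, expressed as percent of DMSO controls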
T3 construct: purchased ReactionBiology
T3 sequence (P51955 1-445): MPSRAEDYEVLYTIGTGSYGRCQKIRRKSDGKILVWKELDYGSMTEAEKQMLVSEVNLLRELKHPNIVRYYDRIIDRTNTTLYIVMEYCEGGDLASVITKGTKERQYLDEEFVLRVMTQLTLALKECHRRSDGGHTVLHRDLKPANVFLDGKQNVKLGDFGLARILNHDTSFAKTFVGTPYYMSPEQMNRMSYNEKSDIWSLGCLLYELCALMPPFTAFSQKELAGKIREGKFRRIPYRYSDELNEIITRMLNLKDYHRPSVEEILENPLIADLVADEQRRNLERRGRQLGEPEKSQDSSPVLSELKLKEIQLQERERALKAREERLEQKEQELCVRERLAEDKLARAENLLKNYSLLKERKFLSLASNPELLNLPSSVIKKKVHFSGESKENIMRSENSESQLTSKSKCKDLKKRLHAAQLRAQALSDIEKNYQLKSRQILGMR

[1] = read-out: % Enzyme Activity (relative to DMSO controls), Average
[2] = read-out: % Enzyme Activity (relative to DMSO controls), Data 1
[3] = read-out: % Enzyme Activity (relative to DMSO controls), Data 2

T2 sequence (P53355 whole entry): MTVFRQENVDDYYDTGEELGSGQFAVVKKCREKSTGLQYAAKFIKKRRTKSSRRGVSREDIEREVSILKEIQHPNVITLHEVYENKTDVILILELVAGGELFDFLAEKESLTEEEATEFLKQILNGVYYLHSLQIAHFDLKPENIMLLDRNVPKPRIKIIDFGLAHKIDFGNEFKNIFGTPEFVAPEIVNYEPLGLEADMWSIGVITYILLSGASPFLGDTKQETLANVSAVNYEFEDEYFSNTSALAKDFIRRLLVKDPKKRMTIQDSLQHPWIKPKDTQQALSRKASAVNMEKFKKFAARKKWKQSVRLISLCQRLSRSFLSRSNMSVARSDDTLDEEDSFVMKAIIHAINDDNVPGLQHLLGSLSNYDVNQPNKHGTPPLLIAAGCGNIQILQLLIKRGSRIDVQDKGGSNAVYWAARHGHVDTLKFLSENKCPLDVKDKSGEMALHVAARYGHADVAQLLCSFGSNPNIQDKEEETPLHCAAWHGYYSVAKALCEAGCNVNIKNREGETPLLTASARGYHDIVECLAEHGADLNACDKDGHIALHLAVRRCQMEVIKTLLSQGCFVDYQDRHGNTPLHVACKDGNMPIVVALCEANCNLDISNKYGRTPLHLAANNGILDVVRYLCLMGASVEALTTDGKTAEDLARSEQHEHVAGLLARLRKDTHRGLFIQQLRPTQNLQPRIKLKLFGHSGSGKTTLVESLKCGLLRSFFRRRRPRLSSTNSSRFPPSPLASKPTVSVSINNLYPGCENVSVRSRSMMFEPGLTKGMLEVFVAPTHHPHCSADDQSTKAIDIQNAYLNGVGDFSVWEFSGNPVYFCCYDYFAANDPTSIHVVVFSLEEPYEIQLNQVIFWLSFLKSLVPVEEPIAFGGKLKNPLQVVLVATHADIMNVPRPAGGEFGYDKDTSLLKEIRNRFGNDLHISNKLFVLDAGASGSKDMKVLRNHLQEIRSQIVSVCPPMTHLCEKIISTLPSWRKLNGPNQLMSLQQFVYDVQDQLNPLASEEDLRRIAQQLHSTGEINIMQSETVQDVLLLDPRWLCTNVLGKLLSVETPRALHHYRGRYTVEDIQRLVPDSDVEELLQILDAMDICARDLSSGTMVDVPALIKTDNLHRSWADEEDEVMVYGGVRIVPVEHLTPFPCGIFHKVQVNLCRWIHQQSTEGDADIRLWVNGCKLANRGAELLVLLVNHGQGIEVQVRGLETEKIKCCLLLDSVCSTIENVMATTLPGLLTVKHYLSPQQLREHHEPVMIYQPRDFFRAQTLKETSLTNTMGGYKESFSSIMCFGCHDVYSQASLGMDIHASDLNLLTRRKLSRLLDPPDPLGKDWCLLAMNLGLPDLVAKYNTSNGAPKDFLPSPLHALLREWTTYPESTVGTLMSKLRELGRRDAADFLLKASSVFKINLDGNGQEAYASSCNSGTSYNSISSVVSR
Sequence of VEGFR2 (P35968 20-1356): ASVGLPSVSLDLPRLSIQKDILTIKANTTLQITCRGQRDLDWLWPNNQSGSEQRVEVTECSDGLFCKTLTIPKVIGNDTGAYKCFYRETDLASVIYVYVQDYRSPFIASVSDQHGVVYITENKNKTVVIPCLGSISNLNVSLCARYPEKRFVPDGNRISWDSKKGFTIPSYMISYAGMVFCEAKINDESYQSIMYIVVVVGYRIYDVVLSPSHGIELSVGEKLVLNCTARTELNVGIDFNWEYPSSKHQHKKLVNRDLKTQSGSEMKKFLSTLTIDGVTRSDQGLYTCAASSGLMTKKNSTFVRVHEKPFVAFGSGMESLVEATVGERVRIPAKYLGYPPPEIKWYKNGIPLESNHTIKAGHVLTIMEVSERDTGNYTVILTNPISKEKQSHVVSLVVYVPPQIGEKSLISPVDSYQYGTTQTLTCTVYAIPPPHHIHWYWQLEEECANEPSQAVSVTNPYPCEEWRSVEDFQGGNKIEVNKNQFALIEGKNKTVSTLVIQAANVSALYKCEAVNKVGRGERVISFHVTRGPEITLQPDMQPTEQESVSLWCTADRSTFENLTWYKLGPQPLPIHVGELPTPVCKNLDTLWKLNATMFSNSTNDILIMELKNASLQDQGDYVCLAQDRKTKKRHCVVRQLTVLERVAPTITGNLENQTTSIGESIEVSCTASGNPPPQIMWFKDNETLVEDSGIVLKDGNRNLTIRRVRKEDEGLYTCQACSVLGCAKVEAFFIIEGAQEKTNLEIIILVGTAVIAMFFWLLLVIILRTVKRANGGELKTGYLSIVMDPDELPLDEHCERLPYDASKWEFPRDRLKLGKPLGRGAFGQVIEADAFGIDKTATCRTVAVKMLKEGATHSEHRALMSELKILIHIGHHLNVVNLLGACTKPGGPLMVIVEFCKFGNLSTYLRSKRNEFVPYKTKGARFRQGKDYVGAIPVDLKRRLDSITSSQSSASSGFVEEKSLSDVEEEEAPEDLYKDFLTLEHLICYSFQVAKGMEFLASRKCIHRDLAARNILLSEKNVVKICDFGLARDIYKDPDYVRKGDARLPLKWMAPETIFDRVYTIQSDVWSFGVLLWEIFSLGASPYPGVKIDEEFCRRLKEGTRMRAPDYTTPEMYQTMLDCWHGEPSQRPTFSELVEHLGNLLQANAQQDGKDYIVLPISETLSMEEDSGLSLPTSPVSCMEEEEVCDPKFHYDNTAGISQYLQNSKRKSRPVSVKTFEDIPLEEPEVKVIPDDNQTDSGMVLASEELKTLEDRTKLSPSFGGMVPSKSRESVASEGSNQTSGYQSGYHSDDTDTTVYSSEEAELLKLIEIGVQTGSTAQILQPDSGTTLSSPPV
T1 sequence (Q9P289 whole entry): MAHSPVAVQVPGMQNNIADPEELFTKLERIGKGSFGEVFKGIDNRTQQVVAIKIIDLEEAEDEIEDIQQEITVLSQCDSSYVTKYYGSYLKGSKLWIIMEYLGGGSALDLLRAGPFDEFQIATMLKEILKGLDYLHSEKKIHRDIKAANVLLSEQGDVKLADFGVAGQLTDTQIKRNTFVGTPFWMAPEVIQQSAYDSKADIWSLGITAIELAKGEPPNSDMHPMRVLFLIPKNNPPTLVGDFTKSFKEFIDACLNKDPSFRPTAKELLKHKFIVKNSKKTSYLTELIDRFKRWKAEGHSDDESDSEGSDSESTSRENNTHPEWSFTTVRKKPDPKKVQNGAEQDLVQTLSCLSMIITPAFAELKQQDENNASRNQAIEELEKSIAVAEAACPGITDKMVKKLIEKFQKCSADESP

Structure (SMILES) | % Enzyme Activity (relative to DMSO controls), Average (MST-4; 1 uM) [%] | % Enzyme Activity (relative to DMSO controls), Data 1 (MST-4; 1 uM) [%] | % Enzyme Activity (relative to DMSO controls), Data 2 (MST-4; 1 uM) [%] | % Enzyme Activity (relative to DMSO controls), Average (MST-4; 10 uM) [%] | % Enzyme Activity (relative to DMSO controls), Data 1 (MST-4; 10 uM) [%] | % Enzyme Activity (relative to DMSO controls), Data 2 (MST-4; 10 uM) [%] | % Enzyme Activity (relative to DMSO controls), Average (VEGFR2; 1 uM) [%] | % Enzyme Activity (relative to DMSO controls), Data 1 (VEGFR2; 1 uM) [%] | % Enzyme Activity (relative to DMSO controls), Data 2 (VEGFR2; 1 uM) [%] | % Enzyme Activity (relative to DMSO controls), Average (VEGFR2; 10 uM) [%] | % Enzyme Activity (relative to DMSO controls), Data 1 (VEGFR2; 10 uM) [%] | % Enzyme Activity (relative to DMSO controls), Data 2 (VEGFR2; 10 uM) [%] | further results
O=P(O)(O)C(O)(Cc1cnc2ccccn12)P(=O)(O)O [Minodronic acid] |  |  |  |  |  |  |  |  |  |  |  |  | remaining activity at 1 µM (MST-4; [1]): 95.6%; remaining activity at 10 µM (MST-4; [1]): 81.5%; remaining activity at 1 µM (MST-4; [2]): 84.5%; remaining activity at 10 µM (MST-4; [2]): 83.7%; remaining activity at 1 µM (MST-4; [3]): 107%; remaining activity at 10 µM (MST-4; [3]): 79.3%
Oc1ccc(O)cc1 [Hydroquinone] | 86.76 | 90.83 | 82.69 | 89.91 | 90.73 | 89.08 | 108.33 | 107.95 | 108.7 | 108.92 | 109.26 | 108.57 | % Enzyme Activity (relative to DMSO controls), Average (DAPK1): 106.84% and 99.20%; % Enzyme Activity (relative to DMSO controls), Data 1 (DAPK1): 112.42% and 95.43%; % Enzyme Activity (relative to DMSO controls), Data 2 (DAPK1): 101.25% and 102.97%
C[C@H](O)[C@H](O)[C@H]1CNc2nc(N)[nH]c(=O)c2N1 [Sapropterin] | 87.71 | 88.88 | 86.54 | 87.19 | 96.6 | 77.78 | 98.99 | 101.37 | 96.61 | 98.14 | 98.48 | 97.79 | % Enzyme Activity (relative to DMSO controls), Average (NEK2; 1 uM): 93.31%; % Enzyme Activity (relative to DMSO controls), Data 1 (NEK2; 1 uM): 92.46%; % Enzyme Activity (relative to DMSO controls), Data 2 (NEK2; 1 uM): 94.15%; % Enzyme Activity (relative to DMSO controls), Average (NEK2; 10 uM): 93.52%; % Enzyme Activity (relative to DMSO controls), Data 1 (NEK2; 10 uM): 92.39%; % Enzyme Activity (relative to DMSO controls), Data 2 (NEK2; 10 uM): 94.64%
O=C(CCCCCCC(=O)Nc1ccccc1)NO [Vorinostat] | 61.30 | 64.87 | 57.73 | 101.79 | 93.77 | 109.8 |  |  |  |  |  |  | 
